Oligonucleotides are written 5' to 3', each unit as a sugar letter and its base; * is a phosphorothioate linkage, no mark a phosphodiester; rarer units and linkages stand in square brackets, end groups in braces. Plain capitals give the bases only. e = 2'-O-(2-methoxyethyl) (MOE); [5mC] = 5-methylcytosine; d = 2'-deoxy (DNA)
What follows are sequences tested on mouse glucose-6-phosphatase translocase mRNA (assay: Antisense inhibition of mouse glucose-6-phosphatase translocase mRNA in primary mouse hepatocytes, 50 nM (Table 5)). Conditions: 50 nM oligonucleotide, mRNA by real-time PCR, normalized with RIBOGREEN.
Assay type: cell-based
Description: Primary mouse hepatocytes were prepared from CD-1 mice purchased from Charles River Labs. Primary mouse hepatocytes were routinely cultured in Hepatocyte Attachment Media supplemented with 10% fetal bovine serum (Invitrogen Life Technologies, Carlsbad, Calif.), 250 nM dexamethasone, and 10 nM bovine insulin (Sigma-Aldrich, St. Louis, Mo.). Cells were seeded into 96-well plates (Falcon-Primaria #353872, BD Biosciences, Bedford, Mass.) at a density of approximately 4,000-6,000 cells/well for use in oligomeric compound transfection experiments.
Quantitation of glucose 6-phosphatase translocase mRNA levels was accomplished by real-time quantitative PCR using the ABI PRISM™ 7600, 7700, or 7900 Sequence Detection System (PE-Applied Biosystems, Foster City, Calif.) according to manufacturer's instructions.
Prior to quantitative PCR analysis, primer-probe sets specific to the target gene being measured were evaluated for their ability to be “multiplexed” with a GAPDH amplification reaction. After isolation the RNA is subjected to sequential reverse transcriptase (RT) reaction and real-time PCR, both of which are performed in the same well. RT and PCR reagents were obtained from Invitrogen Life Technologies (Carlsbad, Calif.). […] The RT reaction was carried out by incubation for 30 minutes at 48° C. Following a 10 minute incubation at 95° C. to activate the PLATINUM® Taq, 40 cycles of a two-step PCR protocol were carried out: 95° C. for 15 seconds (denaturation) followed by 60° C. for 1.5 minutes (annealing/extension).
Gene target quantities obtained by RT, real-time PCR were normalized using either the expression level of GAPDH, a gene whose expression is constant, or by quantifying total RNA using RiboGreen™ (Molecular Probes, Inc. Eugene, Oreg.). GAPDH expression was quantified by RT, real-time PCR, by being run simultaneously with the target, multiplexing, or separately. Total RNA was quantified using RiboGreen™ RNA quantification reagent (Molecular Probes, Inc. Eugene, Oreg.).
A series of oligomeric compounds was designed to target different regions of mouse glucose-6-phosphatase translocase, using published sequences cited in Table 1. All compounds in Table 5 are chimeric oligonucleotides (“gapmers”) 20 nucleotides in length, composed of a central “gap” region consisting of 10 2′-deoxynucleotides, which is flanked on both sides (5′ and 3′) by five-nucleotide “wings”. The wings are composed of 2′-O-(2-methoxyethyl) nucleotides, also known as 2′-MOE nucleotides. The internucleoside (backbone) linkages are phosphorothioate throughout the oligonucleotide. All cytidine residues are 5-methylcytidines. The compounds were analyzed for their effect on gene target mRNA levels by quantitative real-time PCR as described in other examples herein, using the following primer-probe set designed to hybridize to mouse glucose-6-phosphatase translocase: • forward primer: […] (SEQ ID NO: 66) • reverse primer: CCATCCCAGCCATCATGAG (SEQ ID NO: 67) and the PCR probe was: FAM-[…]-TAMRA (SEQ ID NO: 68) where FAM is the fluorescent reporter dye and TAMRA is the quencher dye. Mouse target gene quantities were normalized by quantifying total RNA using RIBOGREEN™.
Data are from experiments in which primary mouse hepatocytes were treated with 50 nM of the antisense oligonucleotides of the present invention. A reduction in expression is expressed as percent inhibition in Table 5. If present, “N.D.” indicates “not determined”. The target regions to which these oligomeric compounds are inhibitory are herein referred to as “validated target segments.”

| Sequence | % Inhib |
| --- | --- |
| CTGATGGCGTAGGCTGCCGA (e[5mC]*eT*eG*eA*eT*dG*dG*d[5mC]*dG*dT*dA*dG*dG*d[5mC]*dT*eG*e[5mC]*e[5mC]*eG*eA; antisense) [ISIS 148950] | 0% |
| CTGCTGGCCCACTCCAGTAC (e[5mC]*eT*eG*e[5mC]*eT*dG*dG*d[5mC]*d[5mC]*d[5mC]*dA*d[5mC]*dT*d[5mC]*d[5mC]*eA*eG*eT*eA*e[5mC]; antisense) [ISIS 148940] | 61% |
| CTTGTCCAGAGCGATCTCAT (e[5mC]*eT*eT*eG*eT*d[5mC]*d[5mC]*dA*dG*dA*dG*d[5mC]*dG*dA*dT*e[5mC]*eT*e[5mC]*eA*eT; antisense) [ISIS 148945] | 35% |
| CTTTCCGTGTCCTGCCAGTA (e[5mC]*eT*eT*eT*e[5mC]*d[5mC]*dG*dT*dG*dT*d[5mC]*d[5mC]*dT*dG*d[5mC]*e[5mC]*eA*eG*eT*eA; antisense) [ISIS 148987] | 45% |
| GAAGGGTATAGGAGACACCC (eG*eA*eA*eG*eG*dG*dT*dA*dT*dA*dG*dG*dA*dG*dA*e[5mC]*eA*e[5mC]*e[5mC]*e[5mC]; antisense) [ISIS 148997] | 57% |
| GACTGCTCCTGCTTGCAGCT (eG*eA*e[5mC]*eT*eG*d[5mC]*dT*d[5mC]*d[5mC]*dT*dG*d[5mC]*dT*dT*dG*e[5mC]*eA*eG*e[5mC]*eT; antisense) [ISIS 148938] | 50% |
| GAGCCCCAAATCGTCCTTGT (eG*eA*eG*e[5mC]*e[5mC]*d[5mC]*d[5mC]*dA*dA*dA*dT*d[5mC]*dG*dT*d[5mC]*e[5mC]*eT*eT*eG*eT; antisense) [ISIS 148947] | 37% |
| GAGCTACCCACAAGGGCGGA (eG*eA*eG*e[5mC]*eT*dA*d[5mC]*d[5mC]*d[5mC]*dA*d[5mC]*dA*dA*dG*dG*eG*e[5mC]*eG*eG*eA; antisense) [ISIS 148965] | 16% |
| GAGGTTCCACACAAGTTGGG (eG*eA*eG*eG*eT*dT*d[5mC]*d[5mC]*dA*d[5mC]*dA*d[5mC]*dA*dA*dG*eT*eT*eG*eG*eG; antisense) [ISIS 148978] | 34% |
| GCAGCCGCTCTCCTTTCCGT (eG*e[5mC]*eA*eG*e[5mC]*d[5mC]*dG*d[5mC]*dT*d[5mC]*dT*d[5mC]*d[5mC]*dT*dT*eT*e[5mC]*e[5mC]*eG*eT; antisense) [ISIS 148988] | 73% |
| GCCAGTGTGCTGCGCCAGCT (eG*e[5mC]*e[5mC]*eA*eG*dT*dG*dT*dG*d[5mC]*dT*dG*d[5mC]*dG*d[5mC]*e[5mC]*eA*eG*e[5mC]*eT; antisense) [ISIS 148957] | 57% |
| GCCCCAGTCTGTACAGCAAG (eG*e[5mC]*e[5mC]*e[5mC]*e[5mC]*dA*dG*dT*d[5mC]*dT*dG*dT*dA*d[5mC]*dA*eG*e[5mC]*eA*eA*eG; antisense) [ISIS 148963] | 55% |
| GCCGCAAATATGACAGTGCG (eG*e[5mC]*e[5mC]*eG*e[5mC]*dA*dA*dA*dT*dA*dT*dG*dA*d[5mC]*dA*eG*eT*eG*e[5mC]*eG; antisense) [ISIS 148942] | 17% |
| GCTCACAAACTTGCTGATGG (eG*e[5mC]*eT*e[5mC]*eA*d[5mC]*dA*dA*dA*d[5mC]*dT*dT*dG*d[5mC]*dT*eG*eA*eT*eG*eG; antisense) [ISIS 148951] | 57% |
| GCTGAAGGGTAAGCCAGCCA (eG*e[5mC]*eT*eG*eA*dA*dG*dG*dG*dT*dA*dA*dG*d[5mC]*d[5mC]*eA*eG*e[5mC]*e[5mC]*eA; antisense) [ISIS 148980] | 43% |
| GCTTTATTCGATCTATACAA (eG*e[5mC]*eT*eT*eT*dA*dT*dT*d[5mC]*dG*dA*dT*d[5mC]*dT*dA*eT*eA*e[5mC]*eA*eA; antisense) [ISIS 149009] | 5% |
| GGATATTTCGAAGCAAGAAG (eG*eG*eA*eT*eA*dT*dT*dT*d[5mC]*dG*dA*dA*dG*d[5mC]*dA*eA*eG*eA*eA*eG; antisense) [ISIS 148983] | 43% |
| GGCACTGATGTAGGAGCTAC (eG*eG*e[5mC]*eA*e[5mC]*dT*dG*dA*dT*dG*dT*dA*dG*dG*dA*eG*e[5mC]*eT*eA*e[5mC]; antisense) [ISIS 148966] | 54% |

— US8258114B2, “Modulation of glucose-6-phosphatase translocase expression” (Isis Pharmaceuticals, Inc., priority 2004, dated 2012)
